Laboratory results published in US20060286624A1, “Method for identifying selective growth inhibitors” (priority 2003, published 2006).

Columns and labels:
[1] = test system: DH5 (sensitive strain) co-seeded with pKS-DH5 (resistant strain); assay: Co-seeded agar plate assay (Assay Protocol A), DH5 sensitive / pKS-DH5 resistant strain; format: cell-based, Escherichia coli; conditions: Run 6, FIG. 3; co-seeding ratio 500:1; 100 mg/mL, 10 μL in DMSO; 37° C., 12 to 18 hours
Procedure: (§1) Each of a pair of bacterial strains, one sensitive and one resistant to a particular antibacterial agent, was grown by inoculating 25 mL of LB broth (i.e., 10 g of tryptone, 5 g of yeast extract, and 10 g NaCl per liter of water) with 1 to 5 colonies in an Erlenmeyer flask, and then holding the mixture overnight at a temperature of 37° C. while agitating the mixture via rotary shaking (200 rpm). Each batch was allowed to cool to room temperature (about 25° C.). Following OD measurements at λ=600 nm to ensure that both strains have grown to similar densities (i.e., a variation of 10% or less), a sample from the batch of the “sensitive” strain was diluted 10-fold in LB growth medium, and a sample of the “resistant” strain was diluted 500-fold or more to provide a final ratio (i.e., co-seeding ratio) of 50 or more sensitive cells to 1 resistant cell. A 750 μL sample of each of the diluted strains was then mixed into 20 mL of molten agar/growth medium agar (melt temperature=48° C.) (KD Medical's Cat. No. BLF-7070) and poured into rectangular 8.5×12.5 cm Omnitray dishes (Nalge NUNC Intl. Cat No. 242811). Wells were cast by applying custom-made pins (about 3 mm in diameter and 5 mm deep; Nalge NUNC Intl.) into the surface of the molten mixture (48 or 96 pins arrayed over the 8.5×12.5 cm surface) and then allowing the mixture to harden to provide an assay plate. […]

[2] = test system: MSSA (sensitive strain) co-seeded with MRSA (resistant strain); assay: Co-seeded agar plate assay (Assay Protocol A), MSSA sensitive / MRSA resistant strain; format: cell-based, Staphylococcus aureus; conditions: co-seeding ratio 500:1, 10 μL in DMSO, 37° C., 12 to 18 hours
Procedure: Each of a pair of bacterial strains, one sensitive and one resistant to a particular antibacterial agent, was grown by inoculating 25 mL of LB broth (i.e., 10 g of tryptone, 5 g of yeast extract, and 10 g NaCl per liter of water) with 1 to 5 colonies in an Erlenmeyer flask, and then holding the mixture overnight at a temperature of 37° C. while agitating the mixture via rotary shaking (200 rpm). Each batch was allowed to cool to room temperature (about 25° C.). Following OD measurements at λ=600 nm to ensure that both strains have grown to similar densities (i.e., a variation of 10% or less), a sample from the batch of the “sensitive” strain was diluted 10-fold in LB growth medium, and a sample of the “resistant” strain was diluted 500-fold or more to provide a final ratio (i.e., co-seeding ratio) of 50 or more sensitive cells to 1 resistant cell. A 750 μL sample of each of the diluted strains was then mixed into 20 mL of molten agar/growth medium agar (melt temperature=48° C.) (KD Medical's Cat. No. BLF-7070) and poured into rectangular 8.5×12.5 cm Omnitray dishes (Nalge NUNC Intl. Cat No. 242811). Wells were cast by applying custom-made pins (about 3 mm in diameter and 5 mm deep; Nalge NUNC Intl.) into the surface of the molten mixture (48 or 96 pins arrayed over the 8.5×12.5 cm surface) and then allowing the mixture to harden to provide an assay plate. Test samples dissolved in DMSO were added to the wells, after which the assay plate was incubated at 37° C. for a time sufficient to allow visual detection of cell colonies (i.e., 12 to 18 hours). The plates were then examined for zones of growth and inhibition under ambient light.
The tests set forth in Table 1 were conducted in the manner described in Assay Protocol A, except that in the case of the streptomycin-resistant strain, the inoculated liquid growth medium also contained 25 ug/mL of streptomycin in order to ensure that resistance was not lost during growth.

[3] = test system: MRSA (sensitive strain) co-seeded with CRMRSA (resistant strain); assay: Co-seeded agar plate assay (Assay Protocol A), MRSA sensitive / CRMRSA resistant strain; format: cell-based, Staphylococcus aureus; conditions: co-seeding ratio 100:1, 10 μL in DMSO, 37° C., 12 to 18 hours
Procedure: as §1

[4] = test system: S-eEF2 (sensitive strain) co-seeded with HS-eEF2 (resistant strain); assay: Co-seeded agar plate assay (Assay Protocol B), S-eEF2 sensitive / HS-eEF2 resistant yeast strain; format: cell-based, Saccharomyces cerevisiae; conditions: co-seeding ratio 50:1, DMSO solution, overnight at 29° C.
Procedure: Assay Protocol B The S. cerevisiae yeast strains, S-eEF2 and HS-eEF2, were each grown overnight from a single colony in 5 mL YPAD (i.e., 1% yeast extract, 2% peptone, 0.004% adenine sulfate, and 2% glucose) in an Erlenmeyer flask at 29° C. with shaking on a roller drum. The sensitive strain S-eEF2 was diluted with additional YPAD to give a final absorbance at λ=600 nm of 0.01 (control =YPAD), and the resistant strain HS-eEF2 was diluted to an absorbance at λ=600 nm of 0.0002. Each strain (5 mL) was added to a glass test tube containing 25 mL of molten YPAD agar equilibrated at 50° C. The mixture was then stirred briefly and poured onto sterile disposable 86×128-mm plastic dishes (NUNC Cat. No. 242811). The dishes were cooled for 5 minutes at room temperature, dried in a hood, and then stored for no more than 2 days until ready for treatment with test substances. Test substances were dissolved in the appropriate solvent and a suitable portion of the solution was spotted on the co-seeded plates. The plates were incubated overnight at 29° C., and then inspected visually for the appearance of zones of growth and inhibition, and particularly for the appearance of resistant colonies capable of growing in the presence of the test substances.
The tests set forth in Table 2 were conducted in the manner described in Assay Protocol B.

[5] = test system: ATCC 9637 (sensitive strain) co-seeded with MB941 (resistant strain); assay: Co-seeded agar plate assay (Assay Protocol A), ATCC 9637 sensitive / MB941 resistant strain; format: cell-based, E. coli; conditions: co-seeding ratio 1000:1, 10 μL in DMSO, 37° C., 12 to 18 hours
Procedure: as §1

CC1(C)S[C@@H]2[C@H](NC(=O)[C@H](N)c3ccccc3)C(=O)N2[C@H]1C(=O)O [ampicillin]
zone of growth inhibition (appearance, resistant colonies) [1]: isolated resistant colonies within a zone that otherwise exhibits no growth

CO[C@@]1(NC(=O)Cc2cccs2)C(=O)N2C(C(=O)O)=C(COC(N)=O)CS[C@@H]21 [cefoxitin]
zone of growth inhibition (appearance, resistant colonies) ([2]; Run 3, FIG. 1C, 500 μg/mL): a multitude of resistant colonies throughout the inhibition zone

O=C(N[C@H](CO)[C@H](O)c1ccc([N+](=O)[O-])cc1)C(Cl)Cl [chloramphenicol]
zone of growth inhibition (appearance, resistant colonies) ([2]; Run 1, FIG. 1A, 100 μg/mL): visually contains no resistant colonies
zone of growth inhibition (appearance, resistant colonies) ([3]; Run 5, FIG. 2B, 1 mg/mL): zone of no growth containing isolated colonies of resistant bacteria

O=C(O)c1cn(C2CC2)c2cc(N3CCNCC3)c(F)cc2c1=O [ciproflaxin, ciprofloxacin]
zone of growth inhibition (appearance, resistant colonies) ([3]; Run 4, FIG. 2A, 50 μg/mL): clear zone of no growth

CC(=O)O[C@@H]1C[C@]23C4=CC[C@@]5(C)[C@H](C(=O)O)[C@@](C)([C@H](C)C(C)C)CC[C@]5(C)[C@H]4CC[C@H]2[C@@](C)(COC3O)[C@H]1O[C@@H]1O[C@H](CO)[C@@H](O)[C@H](O)[C@H]1O (stereo partly shown) [enfumafungin]
zone of growth inhibition (appearance, resistant colonies) ([4]; Run 9, FIG. 5A, 0.2 μg spotted): visually clear zone exhibiting no growth of either the sensitive or the resistant strain

CO[C@H]1[C@@H](O)[C@H](O)[C@H](OC[C@@]23C[C@@H]4[C@H](C)CC[C@H]4[C@@]4(C=O)CC2C=C(C(C)C)[C@@]34C(=O)O)O[C@@H]1C [sordarin]
zone of growth inhibition (appearance, resistant colonies) ([4]; Run 10, FIG. 5B, 2 μg spotted): zone of growth inhibition in which resistant colonies are present

[H]/N=C(/N)N[C@H]1[C@H](O)[C@@H](O)[C@H](O[C@@H]2O[C@@H](C)[C@](O)(C=O)[C@H]2O[C@@H]2O[C@@H](CO)[C@H](O)[C@@H](O)[C@@H]2NC)[C@@H](N/C(N)=N\[H])[C@@H]1O [streptomycin]
zone of growth inhibition (appearance, resistant colonies) ([2]; Run 2, FIG. 1B, 1 mg/mL): a few colonies at or near the border of the inhibition zone
zone of growth inhibition (appearance, resistant colonies) ([5]; Run 8, FIG. 4B, 500 μg/mL): zone of no growth containing isolated colonies of resistant bacteria

CN(C)[C@@H]1C(O)=C(C(N)=O)C(=O)[C@@]2(O)C(O)=C3C(=O)c4c(O)cccc4[C@@](C)(O)[C@H]3C[C@@H]12 [tetracylin, tetracyclin]
zone of growth inhibition (appearance, resistant colonies) ([5]; Run 7, FIG. 4A, 1 mg/mL): clear zone of no growth
